According to ChEMBL document CHEMBL3351596, “Design, synthesis and anti-leishmanial activity of novel symmetrical bispyridinium cyclophanes” (Eur J Med Chem, 2015):
The source made the active and inactive calls. The calls are words filed in the database; no cut-off is given here.

Tests used:
[1] = Selectivity index, ratio of EC50 for human THP1 cells to EC50 for Leishmania donovani MHOM/IND/80/Dd8 amastigotes infected in human THP1 cells; assay type: toxicity, cell-based, THP-1; conditions: read-out: Ratio EC50
Leishmania major [2] = assay: Induction of plasma membrane depolarization in Leishmania major MHOM/JL/80/ Friedlin promastigotes at 0.2 uM after 1 hr by […] dye based fluorescence assay; assay type: functional, organism-based
Leishmania donovani [3] = assay: Anti-leishmanial activity against Leishmania donovani MHOM/IND/80/Dd8 promastigotes expressing pXG-CEK incubated for 72 hrs at 28 degC; assay type: functional, organism-based; conditions: MHOM/IND/80/Dd8, 72 h
[4] = Selectivity index, ratio of EC50 for Leishmania donovani MHOM/IND/80/Dd8 promastigotes to EC50 for Leishmania major MHOM/JL/80/ Friedlin promastigotes; assay type: functional
Leishmania donovani [5] = assay: Anti-leishmanial activity against Leishmania donovani MHOM/IND/80/Dd8 promastigotes expressing pXG empty vector incubated for 72 hrs at 28 degC; assay type: functional, organism-based; conditions: MHOM/IND/80/Dd8, 72 h
Leishmania donovani [6] = assay: Anti-leishmanial activity against Leishmania donovani MHOM/IND/80/Dd8 promastigotes expressing pXG-EK incubated for 72 hrs at 28 degC; assay type: functional, organism-based; conditions: MHOM/IND/80/Dd8, 72 h
Leishmania donovani [7] = assay: Anti-leishmanial activity against Leishmania donovani MHOM/IND/80/Dd8 promastigotes incubated for 72 hrs at 28 degC in presence of 10 mM choline; assay type: functional, organism-based; conditions: MHOM/IND/80/Dd8, 72 h
Leishmania donovani [8] = assay: Anti-leishmanial activity against Leishmania donovani MHOM/IND/80/Dd8 amastigotes expressing pXG empty vector infected in human THP1 cells incubated for 72 hrs at 37 degC; assay type: functional, organism-based; conditions: MHOM/IND/80/Dd8, THP-1, 72 h
Leishmania donovani [9] = assay: Anti-leishmanial activity against Leishmania donovani MHOM/IND/80/Dd8 amastigotes infected in human THP1 cells incubated for 72 hrs at 37 degC by DAPI staining based assay; assay type: functional, organism-based; conditions: MHOM/IND/80/Dd8, THP-1, 72 h
Leishmania donovani [10] = assay: Anti-leishmanial activity against Leishmania donovani MHOM/IND/80/Dd8 amastigotes expressing pXG-EK infected in human THP1 cells incubated for 72 hrs at 37 degC; assay type: functional, organism-based; conditions: MHOM/IND/80/Dd8, THP-1, 72 h
Leishmania donovani [11] = assay: Induction of plasma membrane depolarization in Leishmania donovani MHOM/IND/80/Dd8 promastigotes at 30 uM after 3 hrs by […] dye based fluorescence assay; assay type: functional, organism-based
Leishmania donovani [12] = assay: Anti-leishmanial activity against Leishmania donovani MHOM/IND/80/Dd8 amastigotes expressing pXG-CEK infected in human THP1 cells incubated for 72 hrs at 37 degC; assay type: functional, organism-based; conditions: MHOM/IND/80/Dd8, THP-1, 72 h
Leishmania major [13] = assay: Anti-leishmanial activity against Leishmania major MHOM/JL/80/ Friedlin promastigotes incubated for 72 hrs at 28 degC; assay type: functional, organism-based
Leishmania donovani [14] = assay: Effect on mitochondrial membrane potential in Leishmania donovani MHOM/IND/80/Dd8 promastigotes at 30 uM after 3 hrs by […] dye based fluorescence assay; assay type: functional, organism-based
Leishmania major [15] = assay: Reduction in ATP level in Leishmania major MHOM/JL/80/ Friedlin promastigotes at 0.2 uM after 1 hr by cell-titer-Glo luminescence assay; assay type: functional
Leishmania donovani [16] = assay: Anti-leishmanial activity against Leishmania donovani MHOM/IND/80/Dd8 promastigotes incubated for 72 hrs at 28 degC in presence of 10 mM ethanolamine; assay type: functional, organism-based; conditions: MHOM/IND/80/Dd8, 72 h
Leishmania donovani [17] = assay: Reduction in ATP level in Leishmania donovani MHOM/IND/80/Dd8 promastigotes at 30 uM after 3 hrs by cell-titer-Glo luminescence assay; assay type: functional, organism-based
Leishmania donovani [18] = assay: Anti-leishmanial activity against Leishmania donovani MHOM/IND/80/Dd8 promastigotes incubated for 72 hrs at 28 degC; assay type: functional, organism-based; conditions: MHOM/IND/80/Dd8, 72 h
[19] = Selectivity index, ratio of EC50 for human THP1 cells to EC50 for Leishmania major MHOM/JL/80/ Friedlin amastigotes infected in human THP1 cells; assay type: toxicity, cell-based, THP-1; conditions: read-out: Ratio EC50
Leishmania major [20] = assay: Reduction in ATP level in Leishmania major MHOM/JL/80/ Friedlin promastigotes at 30 uM after 3 hrs by cell-titer-Glo luminescence assay; assay type: functional
THP-1 = assay: Cytotoxicity against human THP1 cells after 48 hrs by MTT assay; assay type: cell-based; conditions: THP-1, 48 h
Leishmania major [21] = assay: Effect on mitochondrial membrane potential in Leishmania major MHOM/JL/80/ Friedlin promastigotes at 0.2 uM after 1 hr by […] dye based fluorescence assay; assay type: functional, organism-based
Leishmania major [22] = assay: Anti-leishmanial activity against Leishmania major MHOM/JL/80/ Friedlin amastigotes infected in human THP1 cells incubated for 72 hrs at 37 degC by DAPI staining based assay; assay type: functional, organism-based; conditions: THP-1, 72 h
Leishmania major [23] = assay: Reduction in ATP level in Leishmania major MHOM/JL/80/ Friedlin promastigotes at 0.2 uM measured up to 3 hrs by cell-titer-Glo luminescence assay; assay type: functional, organism-based

**Q.** Which results are given for c1c[n+]2ccc1NCCCCCNc1cc[n+](cc1)CCCCC2?
**A.** selectivity ratio [1]: 20.2; Activity (Leishmania major [2]): Active; EC50 (Leishmania donovani [3]): 11.5 µM; Ratio EC50 [4]: 100; EC50 (Leishmania donovani [5]): 13.5 µM; EC50 (Leishmania donovani [6]): 12 µM; EC50 (Leishmania donovani [7]): 11.5 µM; EC50 (Leishmania donovani [8]): 8.84 µM; EC50 (Leishmania donovani [9]): 7.62 µM; EC50 (Leishmania donovani [10]): 10.5 µM; Activity (Leishmania donovani [11]): inactive; EC50 (Leishmania donovani [12]): 12.7 µM; EC50 (Leishmania major [13]): 0.07 µM; Activity (Leishmania donovani [14]): inactive; inhibition at 0.2 µM (Leishmania major [15]): > 50%; EC50 (Leishmania donovani [16]): 12 µM; inhibition (Leishmania donovani [17]): inactive; EC50 (Leishmania donovani [18]): 10.6 µM; selectivity ratio [19]: 122; inhibition at 30 µM (Leishmania major [20]): 95%; EC50 (THP-1): 154 µM; Activity (Leishmania major [21]): inactive; EC50 (Leishmania major [22]): 1.26 µM; inhibition (Leishmania major [23]): Active

**Q.** Which results are given for c1cc2cc(c1)CNc1cc[n+](cc1)CCCCC[n+]1ccc(cc1)NC2?
**A.** selectivity ratio [1]: 14.2; EC50 (Leishmania donovani [9]): 13.5 µM; EC50 (Leishmania major [13]): 16.8 µM; EC50 (Leishmania donovani [18]): 52 µM; selectivity ratio [19]: 32.3; EC50 (THP-1): 192 µM; EC50 (Leishmania major [22]): 5.94 µM

**Q.** Which selectivity ratio [1] does the source give for C[C@@H]1[C@H](O)[C@@H](C)/C=C/C=C/C=C/C=C/C=C/C=C/C=C/[C@H](O[C@@H]2O[C@H](C)[C@@H](O)[C@H](N)[C@@H]2O)C[C@@H]2O[C@](O)(C[C@@H](O)C[C@@H](O)[C@H](O)CC[C@@H](O)C[C@@H](O)CC(=O)O[C@H]1C)C[C@H](O)[C@H]2C(=O)O [AMPHOTERICIN B] here?
**A.** 51.1

**Q.** And the EC50 (Leishmania donovani [9])?
**A.** 0.28 µM

**Q.** And the EC50 (Leishmania major [13])?
**A.** 0.32 µM

**Q.** What about the EC50 (Leishmania donovani [18]) of the same molecule?
**A.** 0.21 µM

**Q.** What about the selectivity ratio [19] of the same molecule?
**A.** 59.7

**Q.** And the EC50 (THP-1)?
**A.** 14.3 µM

**Q.** What about the EC50 (Leishmania major [22]) of the same molecule?
**A.** 0.24 µM

**Q.** Which results are given for c1c[n+]2ccc1NCCOCCNc1cc[n+](cc1)CCCCC2?
**A.** selectivity ratio [1]: 4.9; EC50 (Leishmania donovani [9]): 33.2 µM; EC50 (Leishmania major [13]): 0.26 µM; EC50 (Leishmania donovani [18]): 31.5 µM; selectivity ratio [19]: 62.7; EC50 (THP-1): 162 µM; EC50 (Leishmania major [22]): 2.59 µM

**Q.** For c1cc2ccc1CNc1cc[n+](cc1)CCOCC[n+]1ccc(cc1)NC2, which selectivity ratio [1] is on record?
**A.** 3.5

**Q.** What about the EC50 (Leishmania donovani [9]) of the same molecule?
**A.** 63.7 µM

**Q.** And the EC50 (Leishmania major [13])?
**A.** 26.5 µM

**Q.** And the EC50 (Leishmania donovani [18])?
**A.** 76.9 µM

**Q.** And the selectivity ratio [19]?
**A.** 12.9

**Q.** And the EC50 (THP-1)?
**A.** 222 µM

**Q.** What about the EC50 (Leishmania major [22]) of the same molecule?
**A.** 17.2 µM

**Q.** Which selectivity ratio [1] does the source give for CCCCCCCCCCCCCCCCOP(=O)([O-])OCC[N+](C)(C)C [MILTEFOSINE] here?
**A.** 30.5

**Q.** What about the EC50 (Leishmania donovani [9]) of the same molecule?
**A.** 0.88 µM

**Q.** And the EC50 (Leishmania major [13])?
**A.** 16.6 µM

**Q.** What about the EC50 (Leishmania donovani [18]) of the same molecule?
**A.** 6.6 µM

**Q.** And the selectivity ratio [19]?
**A.** 2.5

**Q.** And the EC50 (THP-1)?
**A.** 26.9 µM

**Q.** And the EC50 (Leishmania major [22])?
**A.** 10.6 µM

**Q.** With c1cc2cc(c1)CNc1cc[n+](cc1)CCOCC[n+]1ccc(cc1)NC2 as the molecule, how does the EC50 (Leishmania donovani [9]) read?
**A.** 8.92 µM

**Q.** What about the EC50 (Leishmania major [13]) of the same molecule?
**A.** 5.97 µM

**Q.** And the EC50 (Leishmania donovani [18])?
**A.** 33.8 µM

**Q.** What about the selectivity ratio [19] of the same molecule?
**A.** 22.5

**Q.** And the EC50 (THP-1)?
**A.** 195 µM

**Q.** What about the EC50 (Leishmania major [22]) of the same molecule?
**A.** 8.67 µM

**Q.** Which results are given for c1c[n+]2ccc1NCCCCCNc1cc[n+](cc1)CCOCC2?
**A.** selectivity ratio [1]: 16.6; EC50 (Leishmania donovani [9]): 13 µM; EC50 (Leishmania major [13]): 0.26 µM; EC50 (Leishmania donovani [18]): 31.4 µM; selectivity ratio [19]: 98.5; EC50 (THP-1): 215 µM; EC50 (Leishmania major [22]): 2.18 µM

**Q.** With c1cc2cc(c1)C[n+]1ccc(cc1)NCCOCCNc1cc[n+](cc1)C2 as the molecule, how does the selectivity ratio [1] read?
**A.** 9.2

**Q.** And the EC50 (Leishmania donovani [9])?
**A.** 21.2 µM

**Q.** What about the EC50 (Leishmania major [13]) of the same molecule?
**A.** 2.87 µM

**Q.** What about the EC50 (Leishmania donovani [18]) of the same molecule?
**A.** 76.3 µM

**Q.** And the selectivity ratio [19]?
**A.** 121

**Q.** What about the EC50 (THP-1) of the same molecule?
**A.** 194 µM

**Q.** What about the EC50 (Leishmania major [22]) of the same molecule?
**A.** 1.61 µM

**Q.** For c1c[n+]2ccc1NCCOCCNc1cc[n+](cc1)CCOCC2, which selectivity ratio [1] is on record?
**A.** 6.2

**Q.** What about the EC50 (Leishmania donovani [9]) of the same molecule?
**A.** 20.7 µM

**Q.** And the EC50 (Leishmania major [13])?
**A.** 0.19 µM

**Q.** And the EC50 (Leishmania donovani [18])?
**A.** 23.4 µM

**Q.** And the selectivity ratio [19]?
**A.** 57.2

**Q.** And the EC50 (THP-1)?
**A.** 128 µM

**Q.** What about the EC50 (Leishmania major [22]) of the same molecule?
**A.** 2.24 µM

**Q.** For c1cc2ccc1CNc1cc[n+](cc1)CCCCC[n+]1ccc(cc1)NC2, which selectivity ratio [1] is on record?
**A.** 4.3

**Q.** What about the EC50 (Leishmania donovani [9]) of the same molecule?
**A.** 38.3 µM

**Q.** And the EC50 (Leishmania major [13])?
**A.** 0.17 µM

**Q.** What about the EC50 (Leishmania donovani [18]) of the same molecule?
**A.** 26.4 µM

**Q.** What about the selectivity ratio [19] of the same molecule?
**A.** 170

**Q.** And the EC50 (THP-1)?
**A.** 165 µM

**Q.** And the EC50 (Leishmania major [22])?
**A.** 0.97 µM
